Assays:
Format in all cases: cell-based
[1] = molecular target: T1, human EDG8 (S1PR5) receptor (Homo sapiens, UniProt Q9H228); experiment: Aequorin assay, agonist potency, CHO-A21-EDG8#12 cells; conditions: agonist mode, aequorin luminescence; read-out: S1P5 EC50 range #
T1 construct: carries the transgenes human EDG8 (S1PR5) receptor (Acession number NP_110387.1); expressed in transfected cells; host or cells: CHO-A21-EDG8#12 (CHO clone co-expressing mitochondrial aequorin and chimaeric Gaqi5)
T1 sequence (Q9H228 whole entry): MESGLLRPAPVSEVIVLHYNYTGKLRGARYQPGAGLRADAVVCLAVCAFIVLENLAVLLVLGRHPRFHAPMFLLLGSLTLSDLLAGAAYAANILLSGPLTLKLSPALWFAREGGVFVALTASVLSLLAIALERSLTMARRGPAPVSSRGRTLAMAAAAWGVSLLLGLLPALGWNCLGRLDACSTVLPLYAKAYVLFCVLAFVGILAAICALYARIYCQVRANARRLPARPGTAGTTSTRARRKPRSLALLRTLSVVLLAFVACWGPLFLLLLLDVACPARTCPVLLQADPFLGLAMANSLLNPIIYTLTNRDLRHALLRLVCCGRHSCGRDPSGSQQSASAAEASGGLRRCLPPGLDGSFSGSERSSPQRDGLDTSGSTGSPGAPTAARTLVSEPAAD
Method: (§1) Agonistic activity was measured as described below.
(§2) Cell clone CHO-A21-Edg1#17 carries the transgenes human EDG1 (S1PR1) receptor (Accession number NP_001391.2), mitochondrially targeted Aequorin (active part corresponds to accession number 1SL8_A) and chimaeric Gaqi5=Gaq modified with the 5 C-terminal amino-acids replaced with those of the Gai protein (DCGLF). CHO-A2-S1P3 Mix is a cell pool ectopically expressing human EDG3 (S1PR3) receptor (Accession number NP_005217.2) mitochondrially targeted Aequorin (active part has a sequence similar to accession number AY601106.1) and GNA16 (Accession number NP_002059.3). Cell clone CHO-A21-EDG8#12 carries the transgenes human EDG8 (S1PR5) receptor (Acession number NP_110387.1), mitochondrially expressed Aequorin (active part corresponds to accession number 1SL8_A) and chimaeric Gaqi5 (Gaq modified to present the 5 last amino-acids of the Gai protein “DCGLF”; see above). Cells are grown to mid-log phase in culture medium (HAM's F12, 10% FBS, 100 IU/mL penicillin, 100 μg/mL streptomycin, 250 μg/mL Zeocin, 400 μg/mL G418). 18 hours prior to frozen cells preparation, the medium is changed to remove the antibiotics.
(§3) 18 hours prior to the test, vials of frozen cells are quickly thawed in a 37° C. water bath, cells are recovered by centrifugation and resuspended in assay buffer (DMEM/HAM's F12 with HEPES, without phenol red+0.1% fatty acid-free BSA). Cells are gently agitated in suspension overnight at RT in presence of 5 μM of Coelenterazine h (Molecular Probes). On the day of the test, cells are diluted to their final working concentrations in assay buffer and agitated in suspension for 1 h at RT. Cells are then placed in the luminescence reader (Hamamatsu Functional Drug Screening System 6000, FDSS6000). During cells incubation, compounds are prepared in 100% DMSO, and subsequently diluted in assay buffer. Compounds are then dispensed in the assay plate (black, clear-bottom, 384-well plate). After binding of agonists to the human S1P receptor the intracellular calcium concentration increases and binding of calcium to the Aequorin/Coelenterazine complex leads to an oxidation reaction of coelenterazine, which results in the production of Aequorin, coelenteramide, CO2 and light (Dmax 469 nm). The luminescent response is dependent on the agonist concentration. For agonist testing, 30 μL of cell suspension are injected on 30 μL of test compound or reference agonist in the assay plate. The resulting emission of light is recorded for 90 seconds using the FDSS6000. Dose response curves with the reference compounds are performed before testing the compounds. S1P is the reference agonist and JTE-013 the reference antagonist for S1P2.
(§4) Luminescence data are integrated over the reading interval for agonist and antagonist modes. To standardize the emission of recorded light (determination of the “100% signal”) across plates and across different experiments, some of the wells contain 100 μM digitonin or a saturating concentration of ATP (20 μM). Plates also contain the reference agonist at a concentration equivalent to the EC80 obtained during the test validation and the EC100. Dose-response data from test compounds were analyzed with XLfit (IDBS) software using nonlinear regression applied to a sigmoidal dose-response model and the following equation: […]

[2] = molecular target: T2, S1P4 (Homo sapiens, UniProt O95977); experiment: Aequorin assay, agonist potency, S1P4; conditions: agonist mode, aequorin luminescence
T2 sequence (O95977 1-384): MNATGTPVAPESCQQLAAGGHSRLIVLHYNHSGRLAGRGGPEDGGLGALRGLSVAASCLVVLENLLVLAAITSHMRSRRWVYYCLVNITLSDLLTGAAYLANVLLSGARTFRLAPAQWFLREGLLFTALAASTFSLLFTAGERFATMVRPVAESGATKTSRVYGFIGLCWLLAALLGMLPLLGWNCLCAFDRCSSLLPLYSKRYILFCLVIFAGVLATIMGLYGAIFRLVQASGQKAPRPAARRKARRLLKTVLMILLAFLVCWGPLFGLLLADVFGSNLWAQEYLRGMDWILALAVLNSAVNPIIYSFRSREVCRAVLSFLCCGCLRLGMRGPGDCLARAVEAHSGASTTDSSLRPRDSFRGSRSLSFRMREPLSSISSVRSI
Method: as §1, §3, §4

[3] = molecular target: T3, human EDG1 (S1PR1) receptor (Homo sapiens, UniProt P21453); experiment: Aequorin assay, agonist potency, CHO-A21-Edg1#17 cells; conditions: agonist mode, aequorin luminescence; read-out: S1P1 EC50
T3 construct: expressed in transfected cells; host or cells: CHO-A21-Edg1#17 (CHO clone co-expressing mitochondrial aequorin and chimaeric Gaqi5)
T3 sequence (P21453 whole entry): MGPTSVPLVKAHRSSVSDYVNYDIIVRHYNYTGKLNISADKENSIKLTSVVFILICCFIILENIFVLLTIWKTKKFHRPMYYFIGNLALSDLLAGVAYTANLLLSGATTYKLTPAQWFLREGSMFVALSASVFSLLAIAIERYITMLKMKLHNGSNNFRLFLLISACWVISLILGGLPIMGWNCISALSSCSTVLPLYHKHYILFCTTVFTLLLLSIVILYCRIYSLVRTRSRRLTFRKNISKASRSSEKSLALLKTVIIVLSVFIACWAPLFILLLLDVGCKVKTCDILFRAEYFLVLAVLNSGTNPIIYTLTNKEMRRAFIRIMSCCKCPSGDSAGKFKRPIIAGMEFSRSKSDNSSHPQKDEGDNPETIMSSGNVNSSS
Method: as §1, §2, §3, §4

SMILES | EC50 [1] | EC50 [2] | EC50 [3]
O=C(O)C1(CN2CC3(Cc4ccc(OCCc5cccc(Cl)c5)cc4C3)C2)CC1 [Example 57, 1-((5′-(3-chlorophenethoxy)-1′,3′-dihydrospiro[azetidine-3,2′-inden]-1-yl)methyl)cyclopropanecarboxylic acid] | 100 to 1000 nM | < 1000 nM | < 1000 nM
O=C(O)C1(CN2CC3(Cc4ccc(OCCc5ccccc5Cl)cc4C3)C2)CC1 [Example 58, 1-((5′-(2-chlorophenethoxy)-1′,3′-dihydrospiro[azetidine-3,2′-inden]-1-yl)methyl)cyclopropanecarboxylic acid] | 100 to 1000 nM | < 1000 nM | > 1000 nM
O=C(O)CN1CC2(Cc3ccc(OCCc4ccccc4)cc3C2)C1 [Example 60, 2-(5′-phenethoxy-1′,3′-dihydrospiro[azetidine-3,2′-inden]-1-yl)acetic acid] | 1000 to 10000 nM | > 1000 nM | > 1000 nM
O=C(O)CN1CC2(Cc3ccc(OCCc4ccccc4Cl)cc3C2)C1 [Example 61, 2-(5′-(2-chlorophenethoxy)-1′,3′-dihydrospiro[azetidine-3,2′-inden]-1-yl)acetic acid] | 10 to 100 nM | < 1000 nM | > 1000 nM
CCc1cccc(F)c1COc1ccc2c(c1)CC1(C2)CN(CC(C)CC(=O)O)C1 (stereo not drawn) [Example 65, 4-(5′-((2-ethyl-6-fluorobenzyl)oxy)-1′,3′-dihydrospiro[azetidine-3,2′-inden]-1-yl)-3-methylbutanoic acid] | 10 to 100 nM | < 1000 nM | > 1000 nM
O=C(O)CN1CC2(Cc3ccc(OC4CCc5ccccc54)cc3C2)C1 (stereo not drawn) [Example 66, 2-(5′-((2,3-dihydro-1H-inden-1-yl)oxy)-1′,3′-dihydrospiro[azetidine-3,2′-inden]-1-yl)acetic acid] | ≤ 10 nM | < 1000 nM | > 1000 nM
O=C(O)CN1CC2(Cc3ccc(OC4CCc5cccc(Cl)c54)cc3C2)C1 (stereo not drawn) [Example 67, 2-(5′-((7-chloro-2,3-dihydro-1H-inden-1-yl)oxy)-1′,3′-dihydrospiro[azetidine-3,2′-inden]-1-yl)acetic acid] | ≤ 10 nM | < 1000 nM | > 1000 nM
O=C(O)CN1CC2(Cc3ccc(OC4CCc5cc(Br)cc(F)c54)cc3C2)C1 (stereo not drawn) [Example 68, 2-(5′-((5-bromo-7-fluoro-2,3-dihydro-1H-inden-1-yl)oxy)-1′,3′-dihydrospiro[azetidine-3,2′-inden]-1-yl)acetic acid] | ≤ 10 nM | < 1000 nM | > 1000 nM
O=C(O)CN1CC2(Cc3ccc(OC4CCc5cc(Cl)cc(Cl)c54)cc3C2)C1 (stereo not drawn) [Example 69, 2-(5′-((5,7-dichloro-2,3-dihydro-1H-inden-1-yl)oxy)-1′,3′-dihydrospiro[azetidine-3,2′-inden]-1-yl)acetic acid] | ≤ 10 nM | < 1000 nM | > 1000 nM
O=C(O)CN1CC2(Cc3ccc(OCCOc4ccccc4)cc3C2)C1 [Example 70, 2-(5′-(2-phenoxyethoxy)-1′,3′-dihydrospiro[azetidine-3,2′-inden]-1-yl)acetic acid] | 100 to 1000 nM | < 1000 nM | > 1000 nM
O=C(O)CN1CC2(Cc3ccc(OCc4cccc5c4OCC5)cc3C2)C1 [Example 72, 2-(5′-((2,3-dihydrobenzofuran-7-yl)methoxy)-1′,3′-dihydrospiro[azetidine-3,2′-inden]-1-yl)acetic acid] | 100 to 1000 nM | < 1000 nM | > 1000 nM
O=C(O)CN1CC2(Cc3ccc(OC4Cc5ccccc5C4)cc3C2)C1 [Example 73, 2-(5′-((2,3-dihydro-1H-inden-2-yl)oxy)-1′,3′-dihydrospiro[azetidine-3,2′-inden]-1-yl)acetic acid] | 100 to 1000 nM | < 1000 nM | > 1000 nM
O=C(O)CN1CC2(Cc3ccc(OCc4cccc5c4CCC5)cc3C2)C1 [Example 74, 2-(5′-((2,3-dihydro-1H-inden-4-yl)methoxy)-1′,3′-dihydrospiro[azetidine-3,2′-inden]-1-yl)acetic acid] | ≤ 10 nM | < 1000 nM | > 1000 nM
CC1CCC(C#Cc2ccc3c(c2)CC2(C3)CN(CC(=O)O)C2)CC1 (stereo not drawn) [Example 76, 2-(5′-((4-methylcyclohexyl)ethynyl)-1′,3′-dihydrospiro[azetidine-3,2′-inden]-1-yl)acetic acid] | ≤ 10 nM | < 1000 nM | > 1000 nM
O=C(O)C1CC(N2CC3(Cc4ccc(OCc5cccc6c5CCC6)cc4C3)C2)C1 (stereo not drawn) [Example 83, 3-(5′-((2,3-dihydro-1H-inden-4-yl)methoxy)-1′,3′-dihydrospiro[azetidine-3,2′-inden]-1-yl)cyclobutanecarboxylic acid] | 10 to 100 nM | < 1000 nM | > 1000 nM

The remaining lines, values ahead:

EC50 [1] | EC50 [2] | EC50 [3] | SMILES
1000 to 10000 nM | > 1000 nM | > 1000 nM | O=C(O)CN1CC2(Cc3ccc(OCCOc4ccc(Cl)cc4)cc3C2)C1 [Example 71, 2-(5′-(2-(4-chlorophenoxy)ethoxy)-1′,3′-dihydrospiro[azetidine-3,2′-inden]-1-yl)acetic acid]
≤ 10 nM | > 1000 nM | < 1000 nM | CC(C)Oc1ccc(C#Cc2ccc3c(c2)CC2(C3)CN(CC(=O)O)C2)cn1 [Example 75, 2-(5′-((6-isopropoxypyridin-3-yl)ethynyl)-1′,3′-dihydrospiro[azetidine-3,2′-inden]-1-yl)acetic acid]
≤ 10 nM | < 1000 nM | < 1000 nM | CCOc1ccc(C#Cc2ccc3c(c2)CC2(C3)CN(CC(=O)O)C2)cc1 [Example 77, 2-(5′-((4-ethoxyphenyl)ethynyl)-1′,3′-dihydrospiro[azetidine-3,2′-inden]-1-yl)acetic acid]
≤ 10 nM | < 1000 nM | < 1000 nM | O=C(O)CN1CC2(Cc3ccc(C#Cc4ccc(OC5CCCC5)nc4)cc3C2)C1 [Example 78, 2-(5′-((6-(cyclopentyloxy)pyridin-3-yl)ethynyl)-1′,3′-dihydrospiro[azetidine-3,2′-inden]-1-yl)acetic acid]
≤ 10 nM | < 1000 nM | < 1000 nM | CC(Oc1ccc(C#Cc2ccc3c(c2)CC2(C3)CN(CC(=O)O)C2)cn1)C(F)(F)F (stereo not drawn) [Example 79, 2-(5′-((6-((1,1,1-trifluoropropan-2-yl)oxy)pyridin-3-yl)ethynyl)-1′,3′-dihydrospiro[azetidine-3,2′-inden]-1-yl)acetic acid]
≤ 10 nM | < 1000 nM | > 1000 nM | O=C(O)CN1CC2(Cc3ccc(C#Cc4ccccc4Cl)cc3C2)C1 [Example 80, 2-(5′-((2-chlorophenyl)ethynyl)-1′,3′-dihydrospiro[azetidine-3,2′-inden]-1-yl)acetic acid]
10 to 100 nM | < 1000 nM | > 1000 nM | O=C(O)CN1CC2(Cc3ccc(C#Cc4ccccc4)cc3C2)C1 [Example 82, 2-(5′-(phenylethynyl)-1′,3′-dihydrospiro[azetidine-3,2′-inden]-1-yl)acetic acid]

Reference: patent publication US20200055817A1 (AbbVie Deutschland GmbH & Co. KG, priority 2016, published 2020)
